11 compounds from US20100113465A1, “7-AZASPIRO[3.5]NONANE-7-CARBOXAMIDE COMPOUNDS” (Pfizer Inc., priority 2008, published 2010) can be followed below.

The target in one test is T1, human FAAH (Homo sapiens, UniProt O00519).
T1 construct: made in house; host or cells: E. coli
T1 sequence (O00519 1-579): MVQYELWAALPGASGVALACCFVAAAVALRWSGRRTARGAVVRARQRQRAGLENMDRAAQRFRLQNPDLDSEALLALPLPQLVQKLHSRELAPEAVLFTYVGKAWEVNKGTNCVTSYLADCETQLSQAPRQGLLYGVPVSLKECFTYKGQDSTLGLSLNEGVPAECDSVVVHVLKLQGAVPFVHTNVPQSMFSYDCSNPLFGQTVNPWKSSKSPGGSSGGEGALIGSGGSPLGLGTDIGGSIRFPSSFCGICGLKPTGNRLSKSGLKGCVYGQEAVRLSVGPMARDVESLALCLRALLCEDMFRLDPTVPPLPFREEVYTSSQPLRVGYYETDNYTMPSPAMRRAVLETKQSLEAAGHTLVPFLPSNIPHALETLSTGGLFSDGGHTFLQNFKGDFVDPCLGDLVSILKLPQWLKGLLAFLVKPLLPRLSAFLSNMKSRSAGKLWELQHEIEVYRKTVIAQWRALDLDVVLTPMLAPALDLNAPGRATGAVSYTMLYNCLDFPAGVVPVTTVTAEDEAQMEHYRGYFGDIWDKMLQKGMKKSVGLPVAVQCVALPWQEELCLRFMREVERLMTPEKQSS
In words: FAAH assay, human FAAH enzyme inhibition (kinact/Ki). The format is biochemical. To be noted: oleamide substrate 50 μM, 30° C.; for kinact/KI: read-out: hFAAH kinact/Ki. As for the experimental part: (§1) The FAAH assay was carried out in 384-well clear polystyrene plates (Evergreen Scientific) in a total volume of 50 μl per well in a manner similar to that described by Mileni et al., Proc. Nat. Acad. Sci. 2008, 105, 12820-12824. All percents are by volume. Serial dilutions of compound were initially prepared in 100% DMSO, and then diluted two-fold into HPLC-grade H2O to give 50% DMSO. To each well, was placed the reaction mixture (40 μl) containing 1-4 nM FAAH, 50 mM NaPi, pH 7.4, 3 mM α-ketoglutarate, 0.15 mM NADH, 7.5 U/ml glutamate dehydrogenase, 2 mM ADP, 1 mM EDTA, and 0.1% Triton X-100 (The concentration shown for each component is the final concentration in the assay). To this mixture, was added 5 μl of a compound of Examples 1 to 56 at various concentrations in 50% DMSO (or 5 μl 50% DMSO for controls). This was immediately followed by the addition of 5 μl oleamide (500 μM) dissolved in 75% EtOH/25% DMSO and the reaction mixture was mixed for 1.5 min. The final concentrations of DMSO and EtOH in the assay were each 7.5%. The reactions were incubated at 30° C. and the absorbance at 340 nm was collected over a period of 90 min with readings taken in 30-second intervals using SpectraMax Plus^384 Microplate Spectrophotometer (Molecular Devices, Sunnyvale, Calif.). The human FAAH and rat FAAH used in the assay was prepared as described in the patent application WO 2006/067613 using wild-type E. coli cells transformed in St. Louis, Mo., U.S.A. The purity of the enzyme was greater than 98% based on an analysis by SDS-polyacrylamide gel electrophoresis followed by Coomassie Blue staining.
(§2) Reaction progress curves were corrected for the non-enzymatic oxidation of NADH by subtraction of absorbancies at each time point obtained from control reactions containing no FAAH enzyme. The loss of enzyme activity as a function of time is well-described by the following mathematical equation (1) for a mono-exponential decay: […]
(§3) where At represents the absorbance at time t, A0 represents the absorbance at time zero, and C represents a constant. Observed rates of enzyme inactivation (kobs) were determined from the non-linear reaction progress curves by fitting the corrected absorbancies to an equation for a mono-exponential decay using the third-party Microsoft Excel plug-in, XLfit (IDBS Limited). Secondary plots of kobs vs. inhibitor concentration were prepared from kobs values obtained from progress curves. Second-order rates for enzyme inactivation, expressed as kinact/Ki (M^−1s^−1), were calculated from the slopes from linear regression analysis of the secondary plot of kobs vs. inhibitor concentration as defined in following equation (2), where [I]<<Ki:
(§4) The concentration of substrate in the assay was equal to the Km for oleamide of 50 μM. Therefore, reported kinact/Ki values are obtained by multiplying resulting slopes by a factor of two (i.e. slope=kinact/(Ki*2)).

The next test addresses T2, rat FAAH (Rattus norvegicus, UniProt P97612).
T2 construct: made in house; host or cells: E. coli
T2 sequence (P97612 1-579): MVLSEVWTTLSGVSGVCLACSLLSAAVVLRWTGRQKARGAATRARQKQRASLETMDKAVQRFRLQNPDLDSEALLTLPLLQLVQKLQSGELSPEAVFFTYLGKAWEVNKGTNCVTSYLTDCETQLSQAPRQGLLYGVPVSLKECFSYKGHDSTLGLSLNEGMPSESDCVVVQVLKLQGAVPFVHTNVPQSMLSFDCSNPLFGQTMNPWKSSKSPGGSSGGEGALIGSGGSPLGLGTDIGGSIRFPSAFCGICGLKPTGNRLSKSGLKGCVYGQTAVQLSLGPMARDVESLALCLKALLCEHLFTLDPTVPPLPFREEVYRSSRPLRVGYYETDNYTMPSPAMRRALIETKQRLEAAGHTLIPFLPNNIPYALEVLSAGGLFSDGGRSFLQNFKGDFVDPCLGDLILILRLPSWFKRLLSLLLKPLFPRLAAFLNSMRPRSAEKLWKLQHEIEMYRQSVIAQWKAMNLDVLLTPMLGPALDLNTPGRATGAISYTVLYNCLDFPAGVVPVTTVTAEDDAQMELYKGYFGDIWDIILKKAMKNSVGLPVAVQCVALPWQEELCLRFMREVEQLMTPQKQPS
Put plainly: FAAH assay, rat FAAH enzyme inhibition (kinact/Ki). The format is biochemical. To be noted: oleamide substrate 50 μM, 30° C.; for kinact/KI: read-out: rFAAH kinact/Ki. As for the experimental part:
as §1, §2, §3, §4

SMILES strings stand for the structures.

For `Cc1noc(NC(=O)N2CCC3(CC(c4ccc(F)c(Cl)c4)C3)C(C)C2)c1C` (single isomer, unassigned) [Example 42a, 2-(3-chloro-4-fluorophenyl)-N-(3,4-dimethylisoxazol-5-yl)-5-methyl-7-azaspiro[3.5]nonane-7-carboxamide], the “hFAAH kinact/Ki” value at human FAAH came out at 1550 M⁻¹ s⁻¹. Moreover, the “rFAAH kinact/Ki” value on rat FAAH is 3040 M⁻¹ s⁻¹.

For `Cc1noc(NC(=O)N2CCC3(CC(c4ccc(F)c(Cl)c4)C3)C(C)C2)c1C` (single isomer, unassigned) [Example 42b, 2-(3-chloro-4-fluorophenyl)-N-(3,4-dimethylisoxazol-5-yl)-5-methyl-7-azaspiro[3.5]nonane-7-carboxamide], the “hFAAH kinact/Ki” value at human FAAH stood at 37.1 M⁻¹ s⁻¹. Also, the “rFAAH kinact/Ki” value on rat FAAH is 49.4 M⁻¹ s⁻¹.

As for `Cc1noc(NC(=O)N2CCC3(CC(c4ccc(F)c(Cl)c4)C3)C(C)C2)c1C` (single isomer, unassigned) [Example 42c, 2-(3-chloro-4-fluorophenyl)-N-(3,4-dimethylisoxazol-5-yl)-5-methyl-7-azaspiro[3.5]nonane-7-carboxamide], the “hFAAH kinact/Ki” value at human FAAH stood at 2760 M⁻¹ s⁻¹. For the same compound, at rat FAAH, the “rFAAH kinact/Ki” value was 3530 M⁻¹ s⁻¹.

With `Cc1noc(NC(=O)N2CCC3(CC(c4ccc(F)c(Cl)c4)C3)C(C)C2)c1C` (single isomer, unassigned) [Example 42d, 2-(3-chloro-4-fluorophenyl)-N-(3,4-dimethylisoxazol-5-yl)-5-methyl-7-azaspiro[3.5]nonane-7-carboxamide], at human FAAH, the “hFAAH kinact/Ki” value came to 1100 M⁻¹ s⁻¹. Further, the “rFAAH kinact/Ki” value at rat FAAH is 860 M⁻¹ s⁻¹.

Consider `Cc1noc(NC(=O)N2CCC3(CC2)CC(c2cccc(Oc4ccc(Br)cn4)c2)C3)c1C` [Example 11, 2-{3-[(5-bromopyridin-2-yl)oxy]phenyl}-N-(3,4-dimethylisoxazol-5-yl)-7-azaspiro[3.5]nonane-7-carboxamide], for which the results for the kinact/KI on human FAAH and at rat FAAH were 2340 M⁻¹ s⁻¹ and 9990 M⁻¹ s⁻¹, respectively.

With `Cc1cccc(C2CC3(CCN(C(=O)Nc4nnnn4C)CC3)C2)c1` [Example 16, 2-(3-methylphenyl)-N-(1-methyl-1H-tetrazol-5-yl)-7-azaspiro[3.5]nonane-7-carboxamide], the figures for the kinact/KI on human FAAH and on rat FAAH were 9660 M⁻¹ s⁻¹ and 3200 M⁻¹ s⁻¹, respectively.

On to `Cc1cccc(C2CC3(CCN(C(=O)Nc4nnc(-c5ccccc5)nn4)CC3)C2)c1` [Example 17, 2-(3-methylphenyl)-N-(6-phenyl-1,2,4,5-tetrazin-3-yl)-7-azaspiro[3.5]nonane-7-carboxamide], for which the values for the kinact/KI on human FAAH and on rat FAAH were 2460 M⁻¹ s⁻¹ and 3940 M⁻¹ s⁻¹, respectively.

Turning to `Cc1noc(NC(=O)N2CCC3(CC2)CC(c2cccc(-c4cccc(F)c4)c2)C3)c1C` [Example 31, N-(3,4-dimethylisoxazol-5-yl)-2-(3′-fluorobiphenyl-3-yl)-7-azaspiro[3.5]nonane-7-carboxamide], the kinact/KI at human FAAH came out at 1100 M⁻¹ s⁻¹; on rat FAAH it was 656 M⁻¹ s⁻¹.

In the case of `Cc1nnc(NC(=O)N2CCC3(CC2)CC(c2cccc(OC(F)(F)F)c2)C3)o1` [Example 35, N-(5-methyl-1,3,4-oxadiazol-2-yl)-2-[3-(trifluoromethoxy)phenyl]-7-azaspiro[3.5]nonane-7-carboxamide], the kinact/KI on human FAAH stood at 1530 M⁻¹ s⁻¹; on rat FAAH it was 2460 M⁻¹ s⁻¹.

Take `Cc1noc(NC(=O)N2CCC3(CC2)CC(c2csc(-c4cccc(F)c4)n2)C3)c1C` [Example 37, N-(3,4-dimethylisoxazol-5-yl)-2-[2-(3-fluorophenyl)-1,3-thiazol-4-yl]-7-azaspiro[3.5]nonane-7-carboxamide]: the values for the kinact/KI at human FAAH and on rat FAAH were 1900 M⁻¹ s⁻¹ and 1980 M⁻¹ s⁻¹, respectively.

As for `Cc1noc(NC(=O)N2CCC3(CC2)CC(c2nc(-c4ccc(OC(F)(F)F)cc4)cs2)C3)c1C` [Example 38, N-(3,4-dimethylisoxazol-5-yl)-2-{4-[4-(trifluoromethoxy)phenyl]-1,3-thiazol-2-yl}-7-azaspiro[3.5]nonane-7-carboxamide], the kinact/KI on human FAAH is 3720 M⁻¹ s⁻¹; at rat FAAH, 756 M⁻¹ s⁻¹.
